Laboratory results taken from patent US6946457B2, “Methods of treating sickle cell disease” (The Trustees of Columbia University in the City of New York, priority 2001, dated 2005).

Assays:
[1] = target: T1, hemoglobin S (Homo sapiens, UniProt P68871+P69905, E7V); experiment: Inhibition of aggregation of deoxygenated hemoglobin S (turbidity at 700 nm); assay type: biochemical; settings: low oxygen tension, 1.8M phosphate buffer, 30° C.
T1 construct: from tissue; host or cells: blood / erythrocytes of a subject with sickle cell disease (inferred from the general method)
Protocol: Inhibition of Aggregation of Hemoglobin S
To a 10 mm cuvette (Type 9GL14S, Septum seal, Uvonic Instruments, Plainview, N.Y. 11803) containing 0.9 ml of 1.8M phosphate buffer, pH 9.4, was added 5 mg of Na2S203. The cuvette was capped and two #25 hypodermic needles were inserted through the soft plastic seals. Nitrogen was passed over the surface of the solution for 15 minutes to drive off oxygen; the cuvette was then gently shaken to dissolve the Na2S203. The cuvette was then placed in an ice bath to bring the solution to 4° C. and 0.1 ml of a 2 g/dl HbS solution (13, 14) was added through the plastic diaphragm with a Hamilton air-tight syringe. The temperature of the solution in the cuvette was raised by placing it in a 30° C. bath and then into a spectrophotometer in which the increase in turbidity was measured with time at 700 nm. […] The latter was extracted with phosphate buffer from tablets of Valtrex (Glaxo Wellcome).

[2] = tested on: HbS erythrocytes; experiment: Inhibition of sickling of intact erythrocytes at low oxygen tension; assay type: cell-based, human; settings: for sickling of deoxygenated erythrocytes: microscope, formalin-fixed
Protocol: The procedure used was essentially that of Cerami and Manning (15). The source of the red cells was human blood in which HbS represented essentially 100% of the total hemoglobin as determined by electrophoresis on a cellulose acetate membrane in a Supre-Heme® Tris-EDTA-boric acid buffer (Helena Laboratories, Beaumont, Tex.).
Ten microliters of blood was diluted to 5 ml with PBS and 1 ml aliquots were distributed into the same type of cuvettes used to study hemoglobin S aggregation (see above). Two #25 hypodermic needles were inserted into each plastic diaphragm and nitrogen was passed over the surface of the erythrocyte suspension for 15 minutes with periodic gentle shaking. The hypodermic needles were removed and the sealed cuvettes were left for 2 hours at room temperature. The control cuvette was treated identically except that the cap was loosened for the 2 hour period.
Then 250 μl of 10% buffered formalin (Metpath) was added to the cell suspensions, which were allowed to stand at room temperature for 15 minutes. The cell suspensions were then sedimented by centrifugation, suspended in 100 μl of PBS and examined under the microscope.

[3] = target: human hemoglobin (Homo sapiens, UniProt P68871+P69905); settings: personal communication; cited from earlier work
[4] = tested on: HbS erythrocytes; settings: literature (15, 16); cited from earlier work

Compound	in vitro aggregation of HbS [1]	sickling of deoxygenated erythrocytes ([2]; 0.2 mg/ml)	sickling of deoxygenated erythrocytes ([2]; 0.3 mg/ml)	sickling of deoxygenated erythrocytes ([2]; 0.4 mg/ml)	proportion of sickling cells ([2]; lowest concentration (FIG. 2B, 0.2 mg/ml))	change in Hill coefficient [3]	change in oxygen affinity [3]	concentration relative to the effective concentration of acyclovir ([2]; KCNO 2.4 mg/ml versus acyclovir (FIG. 2))	concentration used to inhibit sickling [4] [mg/mL]
Nc1nc2c(ncn2COCCO)c(=O)[nH]1 [acyclovir, 2-amino-1,9-dihydro-9-[(2-hydroxyethoxy)methyl]-6H-purin-6-one]	inhibiting	Minimal sickling	Minimal sickling	essentially no sickling	below 60%	no significant change	no significant change	–	–
N#C[O-].[K+] [KCNO]	–	–	–	–	–	–	–	more than 10 ×	2.4
CC(C)[C@H](N)C(=O)OCCOCn1cnc2c(=O)[nH]c(N)nc21 [valacyclovir, L-valine, 2-[(2-amino-1,6-dihydro-6-oxo-9H-purin-9-yl)methoxy]ethyl ester]	inhibiting	–	–	–	–	–	–	–	–
